Assay results taken from BindingDB's records for doi:10.1016/j.bmc.2009.08.052 (Okayama University, 2009).

Legend:
[1] = target: Beta-hexosaminidase (Homo sapiens); experiment: Inhibition of human placenta beta-N-acetylglucosaminidase by pNP-GlcNAc substrate hydrolysis assay
[2] = target: Beta-hexosaminidase (Homo sapiens); experiment: Mixed type inhibition of human placenta beta-N-acetylglucosaminidase by pNP-GlcNAc substrate hydrolysis assay

`CC(=O)NC[C@H]1[C@H](O)[C@H](O)[C@@H]2[C@H](O)C[C@@H](CO)N21` [(1R*, 3S*, 5S*, 6S*, 7R*, 7a S*)-5-acetamidomethyl-3-hydroxymethyl-1,6,7-trihydroxypyrrolizidine] was tested. Which IC50 [1] did it give?
The IC50 was 2.39 nM.

And the Ki [2]?
The Ki was 1.25 nM.
